According to patent US7601883B2, “Mammalian sour/acid taste and CSF receptor genes, polypeptides and assays” (The Regents of the University of California, priority 2005, dated 2009):

Key:
[1] = system: taste receptor cells of the tongue; assay: Tastant-induced chorda tympani nerve recordings, wild-type mice; type: in vivo, mouse; settings: wild-type mice (WT); lingual stimulation; normalized to the response to 60 mM AceK
From the text: (§1) To validate this approach as a means of uncovering TRC function, we first generated mice where T1R2-regulatory sequences were used to target DTA expression^25. T1R2 is an essential subunit of the sweet receptor heterodimer (T1R2+3), and the selective ablation of these cells should generate animals with a specific loss of sweet taste^6,9,10,17. To investigate the taste responses of the genetically modified mice, we recorded tastant-induced action potentials from nerves innervating taste receptor cells of the tongue; this physiological assay monitors the activity of the taste system at the periphery, and provides an accurate and reliable measure of taste receptor cell function. […] Next, we engineered animals where the PKD2L1 gene was used to target Cre recombinase into PKD2L1-expressing cells; appropriate expression was confirmed by performing double labeling with Cre and probes specific to PKD2L1-cells, or by crossing them to GFP reporter lines^26. Mice expressing Cre in PKD2L1 cells were crossed to conditional DTA lines, and double-positive progeny were scrutinized both for the specificity and efficiency of killing, as well as the integrity of taste buds.
(§2) Lingual stimulation and recording procedures were performed as previously described^7,9. Neural signals were amplified (10,000×) with a Grass P511 AC amplifier (Astro-Med), digitized with a Digidata 1200B A/D converter (Axon Instruments), and integrated (r.m.s. voltage) with a time constant of 0.5 s. Taste stimuli were presented at a constant flow rate of 4 ml min^−1 for 20 s intervals interspersed by 2 min rinses with artificial saliva^7,9 between presentations. All data analyses used the integrated response over a 25 s period immediately after the application of the stimulus. The mean response to 60 mM AceK was used to normalize responses to each experimental series. Tastants used for nerve recordings were: 10 mM, 60 mM acesulfameK (AceK); 10 mM, 60 mM sodium saccharin (saccharin); 300 mM sucrose; 30 mM mono potassium glutamate+1 mM inosine mono phosphate (Glu); 30 mM L alanine+1 mM inosine mono phosphate (Ala); 10 mM quinine hydrochloride (Qui); 100 μM cycloheximide (Cyx); 10 mM 6-n-propyl 2-thiouracil (PROP); 50 mM, 100 mM sodium chloride (NaCl); 10 mM, 50 mM citric acid; 10 mM, 50 mM tartaric acid; 50 mM, 500 mM acetic acid; pH 2 hydrochloric acid (HCl); 10 mM citric acid pH 2, 4 and 6.
Shown are integrated chorda tympani responses normalized to the response to 60 mM AceK; see herein for details on the ablated lines and concentrations of tastants. […] Wild type, black bars; PKD2L1-DTA, outline bars. The values are means±s.e.m. (n=5) of normalized chorda tympani responses. (c) Quantitation of acid responses of wild type (gray bars) and PKD2L1-DTA animals (outline bars). The values are means±s.e.m. (n=6).

PKD2L1-expressing TRCs = assay: Tastant-induced chorda tympani nerve recordings, mice with DTA ablation of PKD2L1-expressing cells; type: in vivo, mouse; settings: PKD2L1-DTA mice (PKD2L1-expressing cells genetically ablated); range of 5 orders magnitude of proton concentrations
From the text: as §1, §2

Row | Compound | neural responses to tastant (integrated chorda tympani responses) [1] | nerve responses to acid tastants (PKD2L1-expressing TRCs)
1 | [Cl-].[Na+] [NaCl, sodium chloride] | robust neural responses | –
2 | CC1=CC(=O)NS(=O)(=O)O1 [acesulfameK] | robust neural responses | –
3 | CC(=O)O [acetic acid] | robust neural responses | completely abolished
4 | O=C(O)CC(O)(CC(=O)O)C(=O)O [citric acid] | robust neural responses | completely abolished
5 | N[C@@H](CCC(=O)O)C(=O)[O-].[K+] [glutamate, mono potassium glutamate] | robust neural responses | –
6 | Cl [hydrochloric acid] | robust neural responses | completely abolished
7 | C=C[C@H]1CN2CC[C@H]1C[C@H]2[C@H](O)c1ccnc2ccc(OC)cc12.Cl [quinine, quinine hydrochloride] | robust neural responses | –
8 | O=C1NS(=O)(=O)c2ccccc21.[Na] [saccharin, sodium saccharin] | robust neural responses | –
9 | O=C(O)C(O)C(O)C(=O)O (stereo not drawn) [tartaric acid] | – | completely abolished
